“And” between values parts separate entries of the source, which are not always exact repeats. Identical values can stand only once.
Legend:
[1] = tested on: primary prevention patients unable to tolerate recommended doses of statins; experiment: CLEAR OUTCOMES primary prevention subgroup (Example 2): time-to-event efficacy end points; assay type: in vivo, human
Method: (§1) The rationale, design and methods of the CLEAR Outcomes trial is described in Example 1. The trial was conducted at 1250 sites in 32 countries and designed by the Cleveland Clinic Coordinating Center for Clinical Research (C5Research) and an academic Executive Committee in collaboration with the sponsor. The protocol was approved by ethics committees at participating sites and all patients provided written informed consent before enrollment. A contract research organization collected the data which were transferred to C5Research at completion of the trial whose statisticians conducted the analyses described herein. An independent Data Monitoring Committee monitored the trial.
(§2) Primary prevention patients 18 to 85 years of age with an LDL cholesterol ≥100 mg/dL with clinical features placing them at high risk for a first cardiovascular event were eligible. Criteria for high cardiovascular risk included risk scores, such as the Reynolds Risk Score and the SCORE project (Ridker et al., Development and validation of improved algorithms for the assessment of global cardiovascular risk in women: the Reynolds Risk Score, JAMA. 2007 Feb. 14; 297(6):611-9; Ridker et al., C-reactive protein and parental history improve global cardiovascular risk prediction. The Reynolds Risk Score for men, Circulation. 2008; 118: 2243-2251; European Guidelines on CVD Prevention in Clinical Practice. 2016. Eur J Prev Cardiol. 2016 July; 23(11):NP1-NP96), a coronary artery calcium score >400 Agatston units (AU) or presence of either type 1 or 2 diabetes in women aged >65 years or men older than 60 years.
(§3) Investigators were responsible for assessing the patient for statin intolerance. Patients had to report statin intolerance due to an adverse effect that started or increased during statin therapy and resolved or improved after statin therapy was discontinued. Entry criteria required inability to tolerate 2 or more statins at any dose or 1 statin and unwillingness to attempt a second statin or advised by a physician not to attempt taking a second statin. Both the patient and site investigator were required to provide written confirmation that the patient was statin intolerant and aware of the benefits of statins to reduce the risk of cardiovascular events, including death, and acknowledge that many patients who are unable to tolerate a statin can tolerate a different statin or dose. Patients could be enrolled if they tolerated a very low average daily statin dose defined as rosuvastatin <5 mg, atorvastatin <10 mg, simvastatin <10 mg, lovastatin <20 mg, pravastatin <40 mg, fluvastatin <40 mg, or pitavastatin <2 mg. Other background lipid-lowering therapies were permitted, including ezetimibe, niacin, bile acid resins, fibrates, and/or proprotein convertase subtilisin kexin type 9 (PCSK9) inhibitors.
(§4) Eligible patients entered a 4-week run-in period during which patients were treated with single-blind placebo. If patients were intolerant to placebo treatment or if adherence was <80% by tablet count, they were not eligible for randomization. Patients who successfully completed the run-in period were randomly assigned in a 1:1 ratio to receive a 180 mg oral dose of bempedoic acid or matching placebo, administered daily. During the trial, LDL cholesterol and hsCRP results were masked. Beginning 6 months after randomization, the central laboratory notified the investigator, who remained blinded to treatment assignment, if the patient's LDL cholesterol level was ≥25% higher than baseline. Repeat testing was performed after the patient was counseled about diet and encouraged to take all medications as prescribed. The patient returned for a repeat fasting blood lipid profile to confirm whether the LDL cholesterol value exceeded the threshold criteria. If confirmed, the patient's treatment regimen for LDL cholesterol lowering could be adjusted, per standard of care and local practice. […]

[2] = tested on: primary prevention patients unable to tolerate recommended doses of statins; experiment: CLEAR OUTCOMES primary prevention subgroup (Example 2): effects on LDL cholesterol and hsCRP; assay type: in vivo, human
Method: as §1, §2, §3, §4

[3] = tested on: primary prevention patients unable to tolerate recommended doses of statins; experiment: CLEAR OUTCOMES primary prevention subgroup (Example 2): investigator-reported adverse events and safety laboratory findings; assay type: in vivo
Method: as §1, §2, §3, §4

[4] = primary prevention patients, 180 mg oral daily, N = 2100
[5] = vs placebo, primary prevention, adjusted for baseline characteristics
[6] = vs placebo, primary prevention, adjusted for baseline characteristics, listed as bempedoic acid
[7] = vs placebo, primary prevention, unadjusted
[8] = primary prevention subgroup, vs placebo
[9] = primary prevention, after 12 months treatment
[10] = primary prevention, baseline mean 142.2 mg/dL
[11] = primary prevention safety population
[12] = primary prevention safety population, N = 2104
[13] = primary prevention, after 6 months
[14] = primary prevention, after 12 months

CC(C)(CCCCCC(O)CCCCCC(C)(C)C(=O)O)C(=O)O [Bempedoic Acid, Bempedoic acid]
3-component MACE, % of patients [1, 4]: 4.0% | 3-component MACE, number of patients [1, 4]: 83 number of patients | 5-component MACE, % of patients [1, 4]: 5.3% | 5-component MACE, number of patients [1, 4]: 112 number of patients | All-cause mortality, % of patients [1, 4]: 3.6% | All-cause mortality, number of patients [1, 4]: 75 number of patients | Cardiovascular death, % of patients [1, 4]: 1.8% | Cardiovascular death, number of patients [1, 4]: 37 number of patients | Coronary revascularization, % of patients [1, 4]: 2.4% | Coronary revascularization, number of patients [1, 4]: 50 number of patients | Fatal and non-fatal MI, % of patients [1, 4]: 1.4% | Fatal and non-fatal MI, number of patients [1, 4]: 29 number of patients | Fatal and non-fatal stroke, % of patients [1, 4]: 1.3% | Fatal and non-fatal stroke, number of patients [1, 4]: 27 number of patients | Hospitalization for unstable angina, % of patients [1, 4]: 0.5% | Hospitalization for unstable angina, number of patients [1, 4]: 10 number of patients | Primary efficacy endpoint (MACE-4), % of patients [1, 4]: 5.3% | Primary efficacy endpoint (MACE-4), number of patients [1, 4]: 111 number of patients | number need to treat (NNT) to prevent one primary composite outcome ([1]; primary prevention patients, 4-component MACE): 43 patients | effect on stroke and coronary revascularization ([1]; primary prevention patients, vs placebo): not significantly reduced | 3-component MACE, Hazard Ratio (95% CI), adjusted [1, 5]: 0.64 (0.48-0.84) | 5-component MACE, Hazard Ratio (95% CI), adjusted [1, 5]: 0.69 (0.54-0.88) | All-cause mortality, Hazard Ratio (95% CI), adjusted [1, 5]: 0.73 (0.54-0.98) | Cardiovascular death, Hazard Ratio (95% CI), adjusted [1, 5]: 0.61 (0.41-0.92) | Coronary revascularization, Hazard Ratio (95% CI), adjusted [1, 5]: 0.71 and 0.71 (0.49-1.03) | Fatal and non-fatal MI, Hazard Ratio (95% CI), adjusted [1, 5]: 0.61 (0.39-0.98) | Fatal and non-fatal stroke, Hazard Ratio (95% CI), adjusted [1, 5]: 0.76 (0.46-1.26) | Hospitalization for unstable angina, Hazard Ratio (95% CI), adjusted [1, 5]: 0.58 (0.26-1.27) | Primary efficacy endpoint (MACE-4), Hazard Ratio (95% CI), adjusted [1, 5]: 0.70 (0.55-0.89) | 3-component MACE, Hazard Ratio (95% CI), adjusted [1, 6]: 0.64 | 5-component MACE, Hazard Ratio (95% CI), adjusted [1, 6]: 0.69 | All-cause mortality, Hazard Ratio (95% CI), adjusted [1, 6]: 0.73 | Cardiovascular death, Hazard Ratio (95% CI), adjusted [1, 6]: 0.61 | Fatal and non-fatal MI, Hazard Ratio (95% CI), adjusted [1, 6]: 0.61 | Fatal and non-fatal stroke, Hazard Ratio (95% CI), adjusted [1, 6]: 0.76 | Hospitalization for unstable angina, Hazard Ratio (95% CI), adjusted [1, 6]: 0.58 | Primary efficacy endpoint (MACE-4), Hazard Ratio (95% CI), adjusted [1, 6]: 0.70 | 3-component MACE, Hazard Ratio (95% CI), unadjusted [1, 7]: 0.61 (0.46-0.80) | 5-component MACE, Hazard Ratio (95% CI), unadjusted [1, 7]: 0.67 (0.53-0.86) | All-cause mortality, Hazard Ratio (95% CI), unadjusted [1, 7]: 0.69 (0.51-0.92) | Coronary revascularization, Hazard Ratio (95% CI), unadjusted [1, 7]: 0.73 (0.50-1.05) | Death from cardiovascular causes, Hazard Ratio (95% CI), unadjusted [1, 7]: 0.57 (0.38-0.85) | Fatal and non-fatal MI, Hazard Ratio (95% CI), unadjusted [1, 7]: 0.61 (0.38-0.97) | Fatal and non-fatal stroke, Hazard Ratio (95% CI), unadjusted [1, 7]: 0.72 (0.44-1.19) | Hospitalization for unstable angina, Hazard Ratio (95% CI), unadjusted [1, 7]: 0.58 (0.27-1.27) | Primary efficacy endpoint (MACE-4), Hazard Ratio (95% CI), unadjusted [1, 7]: 0.68 (0.53-0.87) | time-averaged difference in LDL cholesterol over the course of the trial [2, 8]: 23.2 mg/dL | time-averaged difference in LDL cholesterol over the duration of the trial, percent [2, 8]: 16.3% | difference in hsCRP reduction compared with placebo [2, 9]: 0.56 mg/L | difference in hsCRP reduction compared with placebo, percent [2, 9]: 21.5% | LS mean difference in LDL cholesterol compared with placebo after 6 months, percent [2, 10]: 21.3% | LS mean reduction in LDL cholesterol compared with placebo after 6 months of treatment [2, 10]: 30.2 mg/dL | reduction of hsCRP after 12 months treatment ([2]; primary prevention, median baseline 2.4 mg/L, bempedoic acid group): 0.34 mg/L | New onset diabetes in patients with pre-diabetes at baseline, % [3, 11]: (8.4) % | New onset diabetes in patients without diabetes at baseline, % [3, 11]: (6.4) % | Adjudicated tendon rupture, % [3, 12]: 1.4% | Adverse event leading to drug discontinuation, % [3, 12]: 9.9% | Any treatment emergent adverse event, % [3, 12]: 84.8% | Atrial fibrillation, % [3, 12]: 2.5% | Cholelithiasis, % [3, 12]: 2.5% | Discontinuation of treatment due to myalgia, % [3, 12]: 1.4% | Elevated hepatic enzymes, % [3, 12]: 4.5% | Gout, % [3, 12]: 2.6% | Hyperuricemia, % [3, 12]: 12.1% | Hypoglycemia, % [3, 12]: 4.9% | Malignancies, % [3, 12]: 4.0% | Muscular disorders, % [3, 12]: 12.8% | Myalgias, % [3, 12]: 4.2% | Neurocognitive disorders, % [3, 12]: 0.4% | Renal impairment, % [3, 12]: 10.3% | Serious treatment emergent adverse event, % [3, 12]: 19.9% | Tendinopathies, % [3, 12]: 1.8% | Change from baseline in creatinine levels, mean (SD) [3, 13]: 0.05 (0.19) mg/dL | Change from baseline in uric acid level, mean (SD) [3, 13]: 0.80 (1.1)^ mg/dL | Patients with creatinine >1.5 mg/dL, % [3, 13]: (3.3%) | Patients with uric acid level >8.5 mg/dL, % [3, 13]: (10.8%) | Change from baseline in glycated hemoglobin level (%), patients with diabetes at baseline [3, 14]: 0.03(0.96) % | Change from baseline in glycated hemoglobin level (%), patients without diabetes at baseline [3, 14]: 0.02(0.26) % | Change from baseline in glycated hemoglobin level (%) ([3]; primary prevention, after 12 months, not a prespecified safety measure): 0.03 (0.79) % | Aspartate aminotransferase level >3 times ULN, % ([3]; primary prevention, at any visit): 3.5% | Creatine kinase levels >10x ULN (single occurrence), % ([3]; primary prevention, at any visit, N = 2104): 0.2% | Alanine aminotransferase level >3 times ULN, % ([3]; primary prevention, at any visit, repeated and confirmed): 2.1% | Worsening hyperglycemia, % ([3]; primary prevention, in patients with diabetes at baseline): (21.6) %
